Source: patent publication US20040014142A1, “Differential diagnosis of neurodegeneration” (INNOGENETICS N.V., priority 1998, published 2004)

Key:
neuromodulin = assay: CSF neuromodulin level after chemotherapy of children (sandwich ELISA NM2/NM4); assay type: in vivo, human; conditions: child with manifest neurotoxicity and diplegia after MTX; exceeded highest standard
Procedure: Neuromodulin was also measured with a sandwich-type ELISA, using two epitope-specific monoclonal antibodies (NM2, NM4; Oestreicher et al., 1994). NM2 was selected as capturing antibody, biotinylated NM4 as detector antibody. Recombinant neuromodulin was used as standard.
(§1) Lumbar punctures were performed for routine analysis either at baseline for diagnostic work-up or just prior to the IT administration of chemotherapy. Five ml of CSF was collected in different polypropylene tubes. One sample was centrifuged immediately at 1500 rpm for 2 minutes to eliminate cells and other insoluble material. The supernatant was stored at −70° C. for subsequent analysis. The number of freeze/thaw cycles was restricted to a minimum. Routine CSF measurement included cytology, protein concentration, glucose, etc.

tau = conditions: in vivo
Procedure: Total tau was measured with the tau antigen test, using AT120 as capturing antibody and biotinylated HT7-BT2 as detector antibody (INNOTEST hTau antigen, Innogenetics, Gent, Belgium).
All patients underwent a thoroughly clinical evaluation at the time of diagnosis. Parental informed consent was available.
as §1

mice = assay: Titer after immunization of mice with α-synuclein (coating ELISA); assay type: in vivo
Procedure: Alpha-synuclein was purified from 3 liters of induced E. coli cultures resulting in purification of more than 10 mg α-synuclein (more than 90% pure estimated from coumassie and silverstained gels). The protein was injected into mice following several immunization schemes (Table 3). After 4 injections the titer to α-synuclein was evaluated in a coating ELISA.

[1] = animal 309 (m2), 1°: 50 μg α-synuclein, 2°: 5 μg peptide (IGP1463)

Compound: CN(Cc1cnc2nc(N)nc(N)c2n1)c1ccc(C(=O)N[C@@H](CCC(=O)O)C(=O)O)cc1 [MTX, methotrexate]
- CSF neuromodulin level (neuromodulin): > 8000 pg/mL
- CSF tau level (tau): > 1500 pg/mL

Compound: α-synuclein
- Estimated titer in direct coating (mice; animal 308 (m4), 50 μg protein): 250000
- Estimated titer in direct coating (mice; [1]): 512000
- titer on peptide (mice; [1]): (titer of 2000 on peptide)
- Estimated titer in direct coating (mice; animal 309 (m4), 1°: 50 μg α-synuclein, 2°: 5 μg peptide (IGP1463)): 128000
- Estimated titer in direct coating (mice; animal 312 (m2), 5 μg α-synuclein protein): 100000
- Estimated titer in direct coating (mice; animal 312 (m3), 5 μg α-synuclein protein): >512000
- Estimated titer in direct coating (mice; animal 313 (m2), 1°: 50 μg protein, 2°: 5 μg protein): 2500000
- titer to α-synuclein (serum dilution resulting in OD value twice the background) (mice; six mice, after 4 injections): above 100000
